According to patent US20240165247A1, “NEW PEPTIDE CONJUGATES” (JIANGYIN USUN PHARMACEUTICAL CO., LTD., priority 2021, published 2024):

Test system: dental ulcer of the patient
Experiment: Dental treatment: solution sprayed onto dental ulcer of a patient, pain relief
Assay type: in vivo, human
Details: 1 mg/mL solution in normal saline
Description: A 1 mg/mL solution of the title compound of Example 1 was prepared in normal saline.
The resultant solution was sprayed using a standard spray device onto the dental ulcer of the patient. Pain relief occurred within 1 minute. The duration of pain relief was about 3 hours.

## Ala-Lys-Pro-Ser-Tyr-Hyp-Thr-Tyr-Hyp-Lys-Procaine [Example 1]
  Duration of pain relief: about 3 hours
  Time to occurrence of pain relief: ≤ 1 min
